Patent publication US4007201A, “Novel pyrazole derivatives” (Kyorin Pharmaceutical Co. Ltd., priority 1975, dated 1977)
Where two headings read alike, the source gives them in different places.

What was measured:
Assay type in all cases: in vivo, male Sprague Dawley rats
[1] = tested on: blood glucose level in non-diabetic rats; experiment: Hypoglycemic activity in non-diabetic rats (screening test); conditions: Rattus norvegicus, 100 mg/kg oral, fasted, glucose s.c.
Protocol: (§1) These new compounds of the present invention are very useful as anti-diabetic agents, which is supported from the following pharmacological studies. The animals used for the pharmacological studies were male Sprague Dawley rats exept otherwise noted. 1. Hypoglycemic activity in non-diabetic rats (screening test)
The rats were fasted for 16 - 18 hours prior to the experiment and those weighing 140 - 160g were used. Glucose solution (100 mg/0.5ml/150g body weight) was subcutaneously injected on the fasted rats. Each of the present compounds was suspended in 1% carboxymethyl cellulose (CMC), and about 0.5 ml of the suspension (corresponding to 100 mg/kg of the compound per body weight) was orally administered. Blood samples were taken from the tail vein of the rats at 2 and 5 hours after the administration, and the blood glucose level in each sample (0.1 ml) was determined by the micro method of Momose as described in SOGO-RINSHO 11, 120 (1962).
3,5-Dinitrophthalic acid is reduced with glucose to stable orange-red azo-compound via red hydroxyaminophthalic acid in basic media.
To 0.5ml of water was added 0.1ml of blood and shaken to hemolyze, and to which was added 1.7ml of 0.06N barium hydroxide solution. To the resulting dark-brown solution was added 1.7ml of zinc sulfate solution (1g/dl), and which was shaken thoroughly and allowed to stand for 2-3min followed by centrifugation.
One ml of 3,5-dinitrophthalic acid solution (1.5g of monopyridinium-3,5-dinitrophthalate in 500ml of water) and 1 ml of sodium carbonatesodium hyposulfite solution (125-25g/500ml) were added to 2ml of spernatant solution. The solution was heated at 100° C for 10 min. After cooling with running water for 3 min, water was added to make 20ml.
To 2ml of water were added 3,5-dinitrophthalic acid solution and an alkaline solution, and the solution was treated as mentioned above.
As the absorbance of reference at 450nm was adjusted to 0, the absorbance of sample corresponded to blood glucose level.

[2] = tested on: blood glucose level in alloxan diabetic rats; experiment: Blood glucose level in alloxan diabetic rats loaded with much quantity of glucose; conditions: alloxan diabetic rats; dose not stated
Protocol: as §1
Respective dose of the compound 4 (12.5 and 100 mg/kg) together with 2g/kg of glucose was orally administered to the alloxan diabetic rats.

[3] = tested on: serum FFA level in fasted rats; experiment: Time course of the serum FFA level in fasted rats (FIG. 1); conditions: 50 mg/kg oral; 0.5, 1, 2, 4 and 6 hours
Protocol: as §1
Further experiment was performed to clarify the effectiveness of the compound 4 on the serum FFA. Blood samples were taken at 0.5, 1, 2, 4 and 6 hours after an oral administration of 50 mg/kg to the fasted rats and the serum FFA levels were determined.

[4] = tested on: serum FFA level in non-diabetic rats; experiment: Serum free fatty acids (FFA) level in non-diabetic rats at 90 minutes; conditions: 100 mg/kg oral
Protocol: as §1
(§2) The rats were fasted for 16-18 hours, and those weighing 130-160g were used. The compound 4 suspended in 1% CMC was orally administered to the fasted rats, and at 90 minutes after administration blood was drawn from the […] vena cava under anesthesia with sodium pentobarbital. The blood glucose level was determined by the method of Momose, and the serum FFA level was determined by the method of Itaya and Ui as described in J. Lipid Res., 6, 16 (1965), respectively.

[5] = tested on: blood glucose level in non-diabetic rats; experiment: Blood glucose level in non-diabetic rats at 90 minutes; conditions: 100 mg/kg oral
Protocol: as §1, §2

[6] = tested on: serum cholesterol level in alloxan diabetic rats; experiment: Serum cholesterol level in alloxan diabetic rats, 10 consecutive days; conditions: 100 mg/kg, 10 consecutive days
Protocol: as §1
(§3) Alloxan diabetic rats were obtained as follows. Namely, 2.5% fresh solution of alloxan (50mg/kg) was injected into the tail vein of male rats, and the rats were daily injected with insulin (1-4 units/day) from the 7th day after the administration of alloxan. The alloxan diabetic rats which were survived for more than 2 months with daily injection of insulin were used. The alloxan diabetic rats were fasted for 24 hours after the last treatment with insulin, and then the compound of the present invention was orally administered. The blood glucose levels were determined by the micro method of Momose before and 2, 4 and 6 hours after the administration.
(§4) The alloxan diabetic rats which were prepared and then preserved for 6 months with insulin as described in the previous experiment were used.

[7] = tested on: blood glucose level in alloxan diabetic rats; experiment: Hypoglycemic effect in alloxan diabetic rats; conditions: ± SE
Protocol: as §1, §3

[8] = tested on: serum FFA level in alloxan diabetic rats; experiment: Serum FFA level in alloxan diabetic rats, 10 consecutive days; conditions: 100 mg/kg, 10 consecutive days
Protocol: as §1, §3, §4

[9] = tested on: blood glucose level in streptozotocin-diabetic rats; experiment: Hypoglycemic effect in streptozotocin-diabetic rats; conditions: Rattus norvegicus; 100 mg/kg oral; 4 hours
Protocol: The animals used for the pharmacological studies were male Sprague Dawley rats exept otherwise noted. 1. […]
The rats were fasted for 16 hours, and then streptozotocin was intravenously injected in a dose of 65 mg/kg. Oral administration of the compound 4 was performed at 48 hours after the injection of streptozotocin. Blood samples were taken at 4 hours after the oral administration, and the blood glucose level in each sample was determined.

[10] = 2 hours, read-out: Reduction % of blood glucose from control after 2 hours
[11] = 5 hours, read-out: Reduction % of blood glucose from control after 5 hours

`Cc1cc(C)n(C(=O)[C@H](C)NS(=O)(=O)c2ccc(Cl)cc2)n1` [Example 13, 1-[N-(p-chlorobenzenesulfonyl)-alanyl]-3,5-dimethylpyrazole] showed an inhibition in vivo at 100 mg/kg [1, 10] of 51.3% and an inhibition in vivo at 100 mg/kg [1, 11] of 5%.

Work on `Cc1cc(C)n(C(=O)CCNS(=O)(=O)c2ccc(Cl)cc2)n1` [Example 8, 1-[N-(p-chlorobenzenesulfonyl)-β-alanyl]-3,5-dimethylpyrazole] yielded an inhibition in vivo at 100 mg/kg [1, 10] of 42.5% and an inhibition in vivo at 100 mg/kg [1, 11] of 22.1%.

`COc1ccc(Cl)cc1C(=O)NCCc1ccc(S(=O)(=O)NCC(=O)n2nc(C)cc2C)cc1` [Example 9, 1-≡N-≡p-[2-(2-methoxy-5-chlorobenzoylamino)-ethyl]benzenesulfonyl.quadrature.glycyl.quadrature.-3,5-dimethyl-pyrazole] was tested, and the inhibition in vivo at 100 mg/kg [1, 10] was 48.1% and the inhibition in vivo at 100 mg/kg [1, 11] was 17.7%.

`Cc1cc(C)n(C(=O)CNS(=O)(=O)c2ccc(CC(C)C)cc2)n1` [Example 11, 1-[N-(p-isobutylbenzenesulfonyl)-glycyl]-3,5-dimethylpyrazole] showed an inhibition in vivo at 100 mg/kg [1, 10] of 37.9% and an inhibition in vivo at 100 mg/kg [1, 11] of 1.4%.

Compound `Cc1cc(C)n(C(=O)CCNS(=O)(=O)c2ccc(CCNC(=O)c3cnccn3)cc2)n1` [Example 3, 1-≡N-≡ p-[2-(2-pyrazinecarbonyl-amino)ethyl]benzenesulfonyl.quadrature. -β-alanyl.quadrature. -3,5-dimethylpyrazole] has an inhibition in vivo at 100 mg/kg [1, 10] of 41.7% and an inhibition in vivo at 100 mg/kg [1, 11] of 25.7%.

For `COCCOc1cnc(NS(=O)(=O)c2ccccc2)nc1` [sodium glymidine], the “Hypoglycemic effect (in words)” value [2] was “no hypoglycemic effect” and the “Effect on serum FFA level (in words, FIG. 1)” value [3] was “only a slight suppression”.

`[H]/N=C(/N)N/C(=N/[H])NCCc1ccccc1` [Phenformin, phenethylbiguanide, reference compound] was tested, and the “Serum FFA level” value [4] was 59.8 ± 18.0 μ Eq/dl, the Blood glucose level [5] was 103.0 ± 6.9 mg/dL and the Cholesterol [6] was 63.5 ± 5.4 mg/dl serum. For the same compound, the “Blood glucose before administration” value ([7]; 100 mg/kg oral group, before administration (baseline)) was 368.7 ± 31.3 mg%, the “Blood glucose 2 hours” value ([7]; 100 mg/kg oral, 2 hours) was 262.2 ± 43.3 mg% and the “Blood glucose 4 hours” value ([7]; 100 mg/kg oral, 4 hours) was 196.0 ± 48.9 mg%. For the same compound, the “Blood glucose 6 hours” value ([7]; 100 mg/kg oral, 6 hours) was 133.7 ± 29.3 mg%, the FFA [8] was 89.9 ± 16.4 μ Eq/dl serum and the inhibition at 100 mg/kg [9] was 79.9 ± 2.9%.

In the case of `Cc1cc(C)n(C(=O)CCNS(=O)(=O)c2ccccc2)n1` [Example 1, 1-(N-benzenesulfonyl-β-alanyl)-3,5-dimethylpyrazole], the inhibition in vivo at 100 mg/kg [1, 10] is reported as 22.1% and the inhibition in vivo at 100 mg/kg [1, 11] is reported as 19.8%.

In the case of `Cc1cc(C)n(C(=O)C(NS(=O)(=O)c2ccc(Cl)cc2)c2ccccc2)n1` (stereo not drawn) [Example 12, 1-[N-(p-chlorobenzenesulfonyl)-α-phenylglycyl]-3,5-dimethylpyrazole], the inhibition in vivo at 100 mg/kg [1, 10] is reported as 32.6% and the inhibition in vivo at 100 mg/kg [1, 11] is reported as 4%.

With `Cc1cc(C)n(C(=O)CNS(=O)(=O)c2ccc(C3CCCCC3)cc2)n1` [Example 10, 1-[N-(p-cyclohexylbenzenesulfonyl)-glycyl]-3,5-dimethylpyrazole] the inhibition in vivo at 100 mg/kg [1, 10] was 42.1% and the inhibition in vivo at 100 mg/kg [1, 11] was 3.3%.

With `CC(=O)NCCc1ccc(S(=O)(=O)NCC(=O)n2nc(C)cc2C)cc1` [Example 5, 1-≡N-[p-(2-acetaminoethyl)-benzenesulfonyl]-glycyl.quadrature.-3,5-dimethylpyrazole] the inhibition in vivo at 100 mg/kg [1, 10] was 35.2% and the inhibition in vivo at 100 mg/kg [1, 11] was 34.1%.

With `CCOC(=O)NCCc1ccc(S(=O)(=O)NCCC(=O)n2nc(C)cc2C)cc1` [Example 7, 1-≡N-[p-(2-ethoxycarbonylaminoethyl)benzenesulfonyl]-β -alanyl.qu adrature.-3,5-dimethylpyrazole] the inhibition in vivo at 100 mg/kg [1, 10] was 41.6% and the inhibition in vivo at 100 mg/kg [1, 11] was 23.3%.

`CCOC(=O)NCCc1ccc(S(=O)(=O)NCC(=O)n2nc(C)cc2C)cc1` [Example 6, 1-≡N-[p-(2-ethoxycarbonylaminoethyl)benzenesulfonyl]-glycyl.quadrature.-3,5-dimethylpyrazole] was tested, and the inhibition in vivo at 100 mg/kg [1, 10] was 33.3% and the inhibition in vivo at 100 mg/kg [1, 11] was 22.1%.

Compound `CC(=O)NCCc1ccc(S(=O)(=O)NCCC(=O)n2nc(C)cc2C)cc1` [Example 2, 1-≡N-[p-(2-acetaminoethyl)benzene-sulfonyl]-β-alanyl.quadrature. -3,5-dimethylpryrazole] has an inhibition in vivo at 100 mg/kg [1, 10] of 37.1% and an inhibition in vivo at 100 mg/kg [1, 11] of 26%.

Compound `Cc1cc(C)n(C(=O)[C@H](Cc2ccccc2)NS(=O)(=O)c2ccc(Cl)cc2)n1` [Example 14, 1-[N-(p-chlorobenzenesulfonyl)-phenylalanyl]-3,5-dimethylpyrazole] has an inhibition in vivo at 100 mg/kg [1, 10] of 43.6% and an inhibition in vivo at 100 mg/kg [1, 11] of -0.9%.
